Experimental data taken from ChEMBL document CHEMBL1201862, “PubChem BioAssay data set” (2004).
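96-well plates; 48 h exposure; 5 concentrations. Endpoints by linear interpolation between flanking doses. Not reached: highest tested concentration assigned. At the GI50, growth is halved.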 Active and inactive are the calls of the source. Rule as the data show it: active = GI50 up to about 1.1 µM and inactive = higher.

How the values were obtained:
Assay in all cases: NCI-60 cell line screen, 48 h
HT-29 = tested on: HT-29
MOLT-4 = tested on: MOLT-4
SK-MEL-28 = tested on: SK-MEL-28
OVCAR-8 = tested on: OVCAR-8
CCRF-CEM = tested on: CCRF-CEM
CAKI-1 = tested on: CAKI-1
U-251 = tested on: U-251
SW-620 = tested on: SW-620
SF-295 = tested on: SF-295
HL-60 = tested on: HL-60
SK-OV-3 = tested on: SK-OV-3
SNB-75 = tested on: SNB-75
A498 = tested on: A498
OVCAR-5 = tested on: OVCAR-5
UACC-257 = tested on: UACC-257
SK-MEL-2 = tested on: SK-MEL-2

| SMILES | GI50 (HT-29) | GI50 (MOLT-4) | GI50 (SK-MEL-28) | GI50 (OVCAR-8) | GI50 (CCRF-CEM) | GI50 (CAKI-1) | GI50 (U-251) | GI50 (SW-620) | GI50 (SF-295) | GI50 (HL-60) | GI50 (SK-OV-3) | GI50 (SNB-75) | GI50 (A498) | GI50 (OVCAR-5) | GI50 (UACC-257) | GI50 (SK-MEL-2) |
| --- | --- | --- | --- | --- | --- | --- | --- | --- | --- | --- | --- | --- | --- | --- | --- | --- |
| CC(=O)c1c(O)c2c([nH]c1=O)CCCC2 | 24.2 µM (inactive) | 8.34 µM (inactive) | 94.4 µM (inactive) | 82.2 µM (inactive) | > 100 µM (inactive) | > 100 µM (inactive) | 23.6 µM (inactive) | > 100 µM (inactive) | 15.7 µM (inactive) | 48.3 µM (inactive) | 25.6 µM (inactive) | 10.6 µM (inactive) |  |  |  |  |
| Cc1c(Cl)cccc1NC(=O)/C(Cl)=C(\Cl)C(=O)O | 19.2 µM (inactive) | 7.43 µM (inactive) | 20.5 µM (inactive) |  | 4.14 µM (inactive) | 17.3 µM (inactive) | 18.5 µM (inactive) | 19.4 µM (inactive) | 19.4 µM (inactive) |  | 18.9 µM (inactive) | 18.7 µM (inactive) | 45.1 µM (inactive) | 16.9 µM (inactive) | 19.3 µM (inactive) | 19.8 µM (inactive) |
| CN(C)c1n/c(=N/c2ccc3ccccc3c2)ss1 |  | 4.45 µM (inactive) | 34.8 µM (inactive) | 19.5 µM (inactive) | 7.05 µM (inactive) | 5.87 µM (inactive) | 6.22 µM (inactive) | 45.3 µM (inactive) |  | 16.1 µM (inactive) | 77.1 µM (inactive) | 20.8 µM (inactive) | 30.6 µM (inactive) |  | 16.5 µM (inactive) | 21.3 µM (inactive) |
| COC(=O)C(Cc1ccccc1)NC(=O)Cn1ccnc1[N+](=O)[O-] (configuration not stated) | > 100 µM (inactive) | > 100 µM (inactive) | > 100 µM (inactive) | > 100 µM (inactive) | > 100 µM (inactive) | > 100 µM (inactive) | > 100 µM (inactive) | > 100 µM (inactive) | > 100 µM (inactive) | > 100 µM (inactive) | > 100 µM (inactive) | 94.8 µM (inactive) | > 100 µM (inactive) | > 100 µM (inactive) | > 100 µM (inactive) | > 100 µM (inactive) |
| NC(=O)c1csc(C2C=CC(CO)O2)n1 (configuration not stated) | > 100 µM (inactive) | > 100 µM (inactive) | > 100 µM (inactive) | > 100 µM (inactive) | > 100 µM (inactive) | > 100 µM (inactive) | > 100 µM (inactive) | > 100 µM (inactive) | > 10 µM (inactive) | > 100 µM (inactive) | > 100 µM (inactive) |  | > 100 µM (inactive) | > 100 µM (inactive) | > 100 µM (inactive) | > 100 µM (inactive) |
| Nc1nc2c(c(=O)[n-]1)[n+](CCO)cn2C1OC(CO)C(O)C1O (configuration not stated) | > 100 µM (inactive) |  | > 100 µM (inactive) | > 100 µM (inactive) | > 100 µM (inactive) | > 100 µM (inactive) | > 100 µM (inactive) | > 100 µM (inactive) | > 100 µM (inactive) | > 100 µM (inactive) | > 100 µM (inactive) | > 100 µM (inactive) | > 100 µM (inactive) | > 100 µM (inactive) | > 100 µM (inactive) | > 100 µM (inactive) |
| C=C(C(=C)P(=S)(C(C)C)C(C)C)P(=S)(C(C)C)C(C)C | > 100 µM (inactive) | > 100 µM (inactive) | > 100 µM (inactive) | > 100 µM (inactive) | > 100 µM (inactive) | > 100 µM (inactive) | > 100 µM (inactive) | > 100 µM (inactive) | > 100 µM (inactive) | > 100 µM (inactive) | > 100 µM (inactive) | > 100 µM (inactive) | > 100 µM (inactive) | > 100 µM (inactive) | > 100 µM (inactive) |  |
| COc1cc2c(cc1OC)C1Cc3cc(OC)c(OC)cc3N1CC2 (configuration not stated) | 40 µM (inactive) | 30.8 µM (inactive) | 32.1 µM (inactive) | 34.8 µM (inactive) | 43.5 µM (inactive) | 21.9 µM (inactive) | 35.4 µM (inactive) | 29.9 µM (inactive) | 33.8 µM (inactive) | 20.9 µM (inactive) | 31.6 µM (inactive) | 21.4 µM (inactive) | 40.5 µM (inactive) | > 100 µM (inactive) | 42 µM (inactive) | 52.4 µM (inactive) |
| O=C(CC1(O)C(=O)Nc2c(Cl)ccc(Cl)c21)c1ccc(Cl)cc1 (configuration not stated) | 28.2 µM (inactive) |  | 53.7 µM (inactive) | 18.9 µM (inactive) |  | 51.1 µM (inactive) | 29.2 µM (inactive) | 55.5 µM (inactive) | 34.5 µM (inactive) |  | 34.8 µM (inactive) | 26.6 µM (inactive) | 38.4 µM (inactive) | 35.2 µM (inactive) | 29.9 µM (inactive) | 25.2 µM (inactive) |
| O=C(O)c1c2c(cc3c(=O)c4ccccc4[nH]c13)CCCC2 | > 100 µM (inactive) | > 100 µM (inactive) | > 100 µM (inactive) | > 100 µM (inactive) | > 100 µM (inactive) |  | > 10 µM (inactive) | 65.2 µM (inactive) | 68.5 µM (inactive) | > 100 µM (inactive) | > 100 µM (inactive) | > 100 µM (inactive) |  | > 100 µM (inactive) | > 100 µM (inactive) | > 100 µM (inactive) |
| CC(C)c1ccccc1NC(=O)CCc1n[nH]c(=S)o1 | > 90.4 µM (inactive) | > 100 µM (inactive) | > 100 µM (inactive) | > 100 µM (inactive) | > 64.1 µM (inactive) | > 100 µM (inactive) | > 75.9 µM (inactive) | > 37.4 µM (inactive) | > 100 µM (inactive) | > 59.8 µM (inactive) | > 100 µM (inactive) | > 66.4 µM (inactive) | > 100 µM (inactive) | > 100 µM (inactive) | > 100 µM (inactive) |  |
| C/C(CC(=O)NC1=CC=C(NC(=O)C/C(C)=N\Nc2ccccc2)CC1)=N/Nc1ccccc1 | > 100 µM (inactive) | > 100 µM (inactive) | > 100 µM (inactive) | > 100 µM (inactive) | > 100 µM (inactive) | > 100 µM (inactive) | > 100 µM (inactive) |  | > 100 µM (inactive) | 50.1 µM (inactive) | > 100 µM (inactive) | > 100 µM (inactive) | > 100 µM (inactive) | > 100 µM (inactive) | > 100 µM (inactive) | > 100 µM (inactive) |
| Cc1nc2ccccc2[s+]c1-c1cnc(NC#N)nc1C(=O)Nc1cccc(Cl)c1 | > 100 µM (inactive) | > 100 µM (inactive) | > 100 µM (inactive) | > 100 µM (inactive) | > 100 µM (inactive) | > 100 µM (inactive) | > 100 µM (inactive) | > 100 µM (inactive) | > 100 µM (inactive) |  | > 100 µM (inactive) | > 100 µM (inactive) | > 100 µM (inactive) | > 100 µM (inactive) | > 100 µM (inactive) | > 100 µM (inactive) |
| COC(=O)C1=C(O)c2cc(-c3ccccc3)c(-c3ccccc3)c(C#N)c2NC(=O)C1 | 5.81 µM (inactive) | 2.46 µM (inactive) | 34.5 µM (inactive) | 4.13 µM (inactive) | 7.14 µM (inactive) | 7.03 µM (inactive) | 7.69 µM (inactive) |  | 3.54 µM (inactive) | 1.33 µM (inactive) |  | 16.8 µM (inactive) | 33.9 µM (inactive) |  | 91.8 µM (inactive) | 40.8 µM (inactive) |
| Cc1cc(C)nc(NS(=O)(=O)c2ccc(Nc3c4ccccc4nc4c(C(=O)NCCN(C)C)cccc34)cc2)n1 | 1.14 µM (inactive) | 0.277 µM (active) | 5.97 µM (inactive) | 0.675 µM (active) | 1.26 µM (inactive) |  | 3.72 µM (inactive) | 0.764 µM (active) | 1.91 µM (inactive) | 1.49 µM (inactive) |  | 10.7 µM (inactive) |  | 12.8 µM (inactive) |  | 4.89 µM (inactive) |
| Cc1cc2c(C)n[nH]c2c(C(=O)O)c1C | > 100 µM (inactive) | > 100 µM (inactive) | > 100 µM (inactive) | > 100 µM (inactive) | > 100 µM (inactive) | > 100 µM (inactive) | > 100 µM (inactive) | > 100 µM (inactive) | > 100 µM (inactive) | > 100 µM (inactive) |  | > 100 µM (inactive) | > 100 µM (inactive) |  | > 100 µM (inactive) | > 100 µM (inactive) |
| N#CC(C(=O)C(=O)C(C#N)c1ccc(Br)cc1)c1ccc(Br)cc1 (configuration not stated) | 8.59 µM (inactive) | 4.4 µM (inactive) | 14.6 µM (inactive) |  | 4.47 µM (inactive) | 21 µM (inactive) | 11.6 µM (inactive) | 14.7 µM (inactive) | 13.6 µM (inactive) | 4.06 µM (inactive) | 15.7 µM (inactive) | 5.13 µM (inactive) | 15.8 µM (inactive) | 18.2 µM (inactive) | 11.9 µM (inactive) | 13.9 µM (inactive) |
| CCCNCCCCC(NC(C)=O)C(=O)NCc1ccccc1 (configuration not stated) | > 100 µM (inactive) | > 100 µM (inactive) | > 100 µM (inactive) | > 100 µM (inactive) | > 100 µM (inactive) | > 100 µM (inactive) | > 100 µM (inactive) | > 100 µM (inactive) | > 100 µM (inactive) |  | > 100 µM (inactive) | 25.2 µM (inactive) | > 100 µM (inactive) | > 100 µM (inactive) | > 100 µM (inactive) | > 100 µM (inactive) |
| COC1CC(n2cc(F)c(N)nc2=O)OC1CO (configuration not stated) | > 100 µM (inactive) | > 100 µM (inactive) | > 100 µM (inactive) | > 100 µM (inactive) | > 100 µM (inactive) | > 100 µM (inactive) | > 100 µM (inactive) | > 100 µM (inactive) | > 100 µM (inactive) | > 100 µM (inactive) | > 100 µM (inactive) | > 100 µM (inactive) |  | > 100 µM (inactive) | > 100 µM (inactive) | > 100 µM (inactive) |
